Paper PMC8989888, “Development of optimized drug-like small molecule inhibitors of the SARS-CoV-2 3CL protease for treatment of COVID-19” (Nature Communications, 2022)
Where two headings read alike, the source gives them in different places.

Biological target: SARS-CoV-2 3CL protease (Severe acute respiratory syndrome coronavirus 2, UniProt P0DTD1)
Format: biochemical
Design: Avg: unit not given here
Details: for Inhibition at 10 µM: 10 µM compound; for Inhibition at 100 µM: 100 µM compound; for IC50 / LogIC50: Figure S1 and S2
[1] = log of IC50 (µM), dose-response curve fit
[2] = Conc 10 µM, mean response (inhibition) of dose-response curve
[3] = Conc 15 µM, mean response (inhibition) of dose-response curve
[4] = Conc 20 µM, mean response (inhibition) of dose-response curve
[5] = Conc 50 µM, mean response (inhibition) of dose-response curve
[6] = Conc 100 µM, mean response (inhibition) of dose-response curve
[7] = Conc 200 µM, mean response (inhibition) of dose-response curve
[8] = dose-response curve of fragment hit
[9] = Conc 10 µM, average response of dose-response curve
[10] = Conc 15 µM, average response of dose-response curve
[11] = Conc 20 µM, average response of dose-response curve
[12] = Conc 50 µM, average response of dose-response curve
[13] = Conc 100 µM, average response of dose-response curve
[14] = Conc 200 µM, average response of dose-response curve
[15] = dose-response retest of fragment hits

SMILES	Inhibition at 10 µM [%]	Inhibition at 100 µM [%]	Avg (Conc 10 µM)	Avg (Conc 15 µM)	Avg (Conc 20 µM)	Avg (Conc 50 µM)	Avg (Conc 100 µM)	Avg (Conc 200 µM)	IC50 (dose-response curve fit) [µM]	LogIC50 [1]	Avg [9]	Avg [10]	Avg [11]	Avg [12]	Avg [13]	Avg [14]	IC50 [15] [µM]	LogIC50 (log of IC50 in µM)	further results
Cn1cc(CNC(=O)c2cccnc2S)c(C(F)(F)F)n1 [Z1488388701]	2	100	2.1	19.8	26.9	96.9	107.8	105	25.7	1.41									
O=C(NCc1ccc(F)c(CO)c1)c1cccnc1S [Z1501229042]	27	100	26.5	32.3	50.8	101.4	101.9	89.2	19.9	1.299									
NC(=O)c1csc(C(=O)CCl)c1 [Z802671642]	16	80																	Avg [2]: 15.9; Avg [3]: 29.5; Avg [4]: 35.2; Avg [5]: 47.6; Avg [6]: 80.1; Avg [7]: 92.5; IC50 [8]: 42.6 µM; LogIC50 (log10 of IC50 in µM): 1.6293
CN1C(=O)CCc2cc(C(=O)CCl)ccc21 [Z2491497303]	6	87									5.9	25.5	13.7	51.4	86.8	97.7	48.8	1.688	
O=C(CCl)N1CCOC(c2ccc(F)cc2)C1 (centres unmarked) [Z1562122812]	31	100									31.1	36.9	59.9	101.2	96.2	101.8	18.4	1.2639	
Cc1cc(C(=O)CCl)c(C)n1-c1ccccn1 [Z126674012]	36	91	35.8	45.3	61.2	80.4	91.2	99.9	15.8	1.197									
O=C(c1ccc(S)nc1)N1CCCC1 [Z235362941]	0	100									0.4	23.9	31.4	102.7	108.6	116.6	23.9	1.378	
OCCc1cnc(S)nc1 [Z2064274637]	5	100									5.2	28.9	36.1	91.7	103	105.7	23.4	1.369	
Cc1cc(C(=O)CCl)c(C)n1-c1ncn[nH]1 [Z57014347]	35	100																	Avg [2]: 35.1; Avg [3]: 51.1; Avg [4]: 60.8; Avg [5]: 75.5; Avg [6]: 101.2; Avg [7]: 107.2; IC50 [8]: 15.4 µM; LogIC50 (log10 of IC50 in µM): 1.188
O=C(NCc1ncccc1F)c1cccnc1S [Z1499268500]	17	100	17.2	49.3	94.7	100.1	91.4	94.2	15	1.1775									
O=C(CCl)N1CCN(Cc2ccsc2)CC1 [Z2650385668]	15	86																	Avg [2]: 14.7; Avg [3]: 16.7; Avg [4]: 31.9; Avg [5]: 63.6; Avg [6]: 86.4; Avg [7]: 96.9; IC50 [8]: 35.7 µM; LogIC50 (log10 of IC50 in µM): 1.553
